Laboratory results: ChEMBL document CHEMBL1135369, “Solid-phase synthesis of new saphenamycin analogues with antimicrobial activity” (2002)
Converted amounts (≈) assume the structure as drawn. The source made the active and inactive calls. No cut-off for these calls is given here.

Columns and labels:
Bacillus subtilis [1] = experiment: Effect on Bacillus subtilis in plate diffusion test; No growth inhibition; type: functional, organism-based
Bacillus subtilis [2] = experiment: Minimum inhibitory concentration against Bacillus subtilis; type: functional
Bacillus subtilis [3] = experiment: Effect on Bacillus subtilis in plate diffusion test; ++ indicates Srong well defined clearance zone; type: functional, organism-based
Bacillus subtilis [4] = experiment: Effect on Bacillus subtilis in plate diffusion test; + indicates clearance zones; type: functional, organism-based

Compound	Activity (Bacillus subtilis [1])	MIC (Bacillus subtilis [2]) [µg/mL]	Activity (Bacillus subtilis [3])	Activity (Bacillus subtilis [4])
Cc1ccc(OCc2ccccc2)c(C(=O)OC(C)c2cccc3nc4c(C(=O)O)cccc4nc23)c1 (configuration not stated)	No growth inhibition	–	–	–
CC(OC(=O)c1cccc(Cl)c1)c1cccc2nc3c(C(=O)OC(C)c4cccc5nc6c(C(=O)O)cccc6nc45)cccc3nc12 (configuration not stated)	–	0.72 (≈ 1.1 µM)	Srong well defined clearance zone	–
CC(OC(=O)c1ccccc1[N+](=O)[O-])c1cccc2nc3c(C(=O)O)cccc3nc12 (configuration not stated)	–	2.49 (≈ 5.97 µM)	–	clearance zones
CC(OC(=O)c1cccc(Cl)c1)c1cccc2nc3c(C(=O)O)cccc3nc12 (configuration not stated)	–	0.07 (≈ 0.172 µM)	Srong well defined clearance zone	–
CC(OC(=O)c1c(F)cccc1F)c1cccc2nc3c(C(=O)O)cccc3nc12 (configuration not stated)	No growth inhibition	–	–	–
CC(OC(=O)c1c(Cl)cccc1Cl)c1cccc2nc3c(C(=O)O)cccc3nc12 (configuration not stated)	–	2.71 (≈ 6.14 µM)	–	clearance zones
CC(OC(=O)c1cccc(F)c1)c1cccc2nc3c(C(=O)O)cccc3nc12 (configuration not stated)	No growth inhibition	–	–	–
Cc1cccc(C(=O)OC(C)c2cccc3nc4c(C(=O)O)cccc4nc23)c1OCc1ccccc1 (configuration not stated)	–	3.73 (≈ 7.57 µM)	–	clearance zones
Cc1ccc(C(=O)OC(C)c2cccc3nc4c(C(=O)O)cccc4nc23)c(OCc2ccccc2)c1 (configuration not stated)	No growth inhibition	–	–	–
C[S+](C)[O-]	inactive	–	–	–
CC(OC(=O)c1ccccc1F)c1cccc2nc3c(C(=O)O)cccc3nc12 (configuration not stated)	No growth inhibition	–	–	–
CC(OC(=O)c1ccccc1Cl)c1cccc2nc3c(C(=O)O)cccc3nc12 (configuration not stated)	–	3.35 (≈ 8.23 µM)	–	clearance zones
CC(OC(=O)c1ccc(F)cc1)c1cccc2nc3c(C(=O)O)cccc3nc12 (configuration not stated)	–	3.93 (≈ 10.1 µM)	–	clearance zones
CC(OC(=O)c1c(Cl)cc(Cl)cc1Cl)c1cccc2nc3c(C(=O)O)cccc3nc12 (configuration not stated)	–	2.1 (≈ 4.41 µM)	Srong well defined clearance zone	–
